Data published in patent publication US20250170154A1 (GreenStone Biosciences, Inc., priority 2023, published 2025).
Read-outs that look alike come from different tables or passages of the source. One block for each compound: values may come before it.

Key:
[1] = Conjugate formation in intestinal S9 incubations; type: in vitro ADME, human, rat, mouse
Experimental: The stability of compounds 1 and 2, and the control compound 7-hydroxycoumarin, were measured using human, rat, and mouse intestinal S9 fractions (Xenotech). Test compound working solutions were prepared by diluting 5 μL of 10 mM stock solutions in DMSO with 495 μL AN. S9 solutions were prepared by diluting the obtained S9 solutions to 1.0 mg/mL in 100 mM potassium phosphate buffer at pH 7.4 containing 10 mM D-saccharic acid-1,4-lactone. An Apricot automation workstation was used to add 100 μL/well of S9 solution to all reaction plates (Blank, T0, T5, T15, T30, T45, T60 and NCF60); 2 μL/well of compound working solutions were added to all 96-well reaction plates except the blank (T0, T5, T15, T30, T45, T60, and NCF60); 600 μL/well of stop solution (4° C. ACN containing 200 ng/mL tolbutamide and 200 ng/mL labetalol as internal standards) was added to the T0 reaction plate; all plates were pre-incubated at 37° C. for 10 minutes; a cofactor regenerating system (98 μL/well) was added, excluding the NCF60 plate which instead received 98 μL/well of 100 mM potassium phosphate buffer. All plates were then incubated at 37° C. To terminate reactions, 600 μL/well of stop solution was applied at specific end time points. After sealing and a 10-minute shaking, plates were centrifuged at 4000 rpm and 4° C. for 20 minutes. […]

[2] = Stability in simulated gastric fluid (SGF); type: in vitro ADME; conditions: SGF pH 1.2, 37° C., 2 μM
Experimental: The stability of compounds 1 to 4, and the control compound omeprazole, were measured in simulated gastric fluid (SGF: 0.2% w/v sodium chloride, 0.7% v/v hydrochloric acid, and 0.32% w/v pepsin in deionized water, pH 1.2±0.05). Stock solutions of the compounds (10 mM) were diluted to 200 μM in DMSO, then duplicate 2 μL aliquots added to 96-well plates for time points 0, 1, 2, 6, and 24 hours. SGF (198 μL) was added to all wells except those for time 0, to give a starting compound concentration of 2 μM; and the samples were incubated at 37° C. with agitation at 600 rpm for the prescribed times. After incubation, 200 μL of each sample was extracted and mixed with 400 μL cold ACN containing 200 ng/mL tolbutamide and labetalol as internal standards. The samples were centrifuged at […] for 20 minutes at 4° C., and the supernatants (60 μL) each diluted with purified water (180 μL) for LC/MS/MS analysis. The percentage of the test compound remaining at each time point was calculated based on the ratio of the peak area of the analyte to the internal standards.

[3] = Intestinal stability, human intestinal S9; type: in vitro ADME
Experimental: (§1) The stability of compounds 1 and 2, and the control compound 7-hydroxycoumarin, were measured using human, rat, and mouse intestinal S9 fractions (Xenotech). Test compound working solutions were prepared by diluting 5 μL of 10 mM stock solutions in DMSO with 495 μL AN. S9 solutions were prepared by diluting the obtained S9 solutions to 1.0 mg/mL in 100 mM potassium phosphate buffer at pH 7.4 containing 10 mM D-saccharic acid-1,4-lactone. An Apricot automation workstation was used to add 100 μL/well of S9 solution to all reaction plates (Blank, T0, T5, T15, T30, T45, T60 and NCF60); 2 μL/well of compound working solutions were added to all 96-well reaction plates except the blank (T0, T5, T15, T30, T45, T60, and NCF60); 600 μL/well of stop solution (4° C. ACN containing 200 ng/mL tolbutamide and 200 ng/mL labetalol as internal standards) was added to the T0 reaction plate; all plates were pre-incubated at 37° C. for 10 minutes; a cofactor regenerating system (98 μL/well) was added, excluding the NCF60 plate which instead received 98 μL/well of 100 mM potassium phosphate buffer. All plates were then incubated at 37° C. To terminate reactions, 600 μL/well of stop solution was applied at specific end time points. After sealing and a 10-minute shaking, plates were centrifuged at 4000 rpm and 4° C. for 20 minutes. Concurrently, 300 μL/well of HPLC grade water was loaded onto eight new 96-well bioanalysis plates. Post-centrifugation, 100 μL supernatant from each reaction plate was transferred to its corresponding bioanalysis plate, shaken for 10 minutes, and then subjected to LC-MS/MS analysis (Shimadzu LC-40D LC system coupled to a Sciex Qtrap 6500 Plus mass spectrometer, using both positive and negative ion modes).

[4] = Intestinal stability, rat intestinal S9; type: in vitro ADME
Experimental: as §1

[5] = Pharmacokinetics in the rat, dosing in solution; conditions: in vivo
[6] = Intestinal stability, mouse intestinal S9; type: in vitro ADME; conditions: intestinal S9 fraction
Experimental: as §1

[7] = Thermodynamic solubility in FaSSIF; type: physicochemical; conditions: thermodynamic from solid, room temperature, 24 hours shaking
Experimental: After shaking, the samples were centrifuged at 25° C. for 20 minutes at 4000 rpm. Filtrates were prepared using the Whatman Mini-UniPrep Syringeless Filter Device (PTFE filter media with polypropylene housing, pore size 0.45 μm) from Cytiva, and dilutions were performed as required. Quantification of all samples was carried out using an LC-UV system.

[8] = test system: mice with L-arginine induced acute pancreatitis; conditions: Siriviriyakul et al., cited from earlier work
[9] = test system: wild-type mice fed a high fat diet; experiment: Genistein in wild-type mice fed a high fat diet; type: in vivo, mouse; conditions: high fat diet 12 weeks, then intraperitoneal 200 mg/Kg genistein in corn oil for 14 days
log P = type: physicochemical
[10] = target: G protein-coupled estrogen receptor (Homo sapiens, UniProt Q99527); conditions: cited from earlier work
Chain of G protein-coupled estrogen receptor (Q99527 whole entry): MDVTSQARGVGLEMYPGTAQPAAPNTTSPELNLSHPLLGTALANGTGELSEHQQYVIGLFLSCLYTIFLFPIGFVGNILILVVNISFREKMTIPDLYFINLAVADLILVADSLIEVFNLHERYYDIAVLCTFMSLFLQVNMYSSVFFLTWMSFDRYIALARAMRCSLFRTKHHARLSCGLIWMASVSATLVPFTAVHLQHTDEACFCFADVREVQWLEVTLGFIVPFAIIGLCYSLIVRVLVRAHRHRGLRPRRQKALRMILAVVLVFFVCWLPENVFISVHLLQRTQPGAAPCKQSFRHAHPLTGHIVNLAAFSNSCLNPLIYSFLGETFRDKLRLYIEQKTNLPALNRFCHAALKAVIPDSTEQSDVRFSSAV

[11] = test system: Db/Db mice fed a high fat diet; experiment: Genistein in Db/Db mice fed a high fat diet; type: in vivo, mouse; conditions: high fat diet 6 weeks, then oral gavage 50 mg/Kg genistein in corn oil for 47 days
[12] = test system: rat model of monocrotaline-induced pulmonary hypertension; conditions: Matori et al.; cited from earlier work
[13] = test system: children with Sanfillipo syndrome; conditions: 160 mg/kg/day for 12 months, median age 7.2 years; cited from earlier work
[14] = target: transthyretin tetramer (TTR) (Homo sapiens, UniProt P02766); conditions: Green et al.; cited from earlier work
[15] = test system: transthyretin tetramer (TTR); conditions: Green et al.; cited from earlier work
[16] = test system: rats with cerulein (AEP) or sodium taurocholate (ANP) induced pancreatitis; conditions: Xia et al.; cited from earlier work
[17] = test system: patients with bladder cancer; conditions: 300 and 600 mg daily for 21 days; cited from earlier work
healthy volunteers = conditions: amorphous solid dispersion, single doses 500 to 3000 mg, then 3000 mg over six consecutive days; cited from earlier work
mdx mice = conditions: Messina et al., cited from earlier work
[18] = Pharmacokinetics in the rat, solid form (powder in mini-capsules); type: in vivo
postmenopausal women = conditions: 54 mg per day, cited from earlier work
[19] = Wang et al.; cited from earlier work
[20] = intestinal S9 fraction, pH 7.4, read-out: intrinsic clearance rate
[21] = solid form, genistein 71 mg/Kg together with 14.2 mg/Kg inulin

Compound: O=c1c(-c2ccc(OCOP(=O)(O)O)cc2)coc2cc(OCOP(=O)(O)O)cc(O)c12 [Compound 3, ((5-Hydroxy-4-oxo-3-(4-((phosphonooxy)methoxy)phenyl)-4H-chromen-7-yl)oxy)methyl dihydrogen phosphate]
- Percentage remaining at time: 1 hour [2]: 95.1%
- Percentage remaining at time: 2 hours [2]: 101%
- Percentage remaining at time: 6 hours [2]: 96.1%
- Percentage remaining at time: 24 hours [2]: 51.4%
- Percentage remaining at time: 0 [2]: 100%
- solubility at 24 h ([7]; read-out: Solubility): 10.2 mM
- solubility at 24 h ([7]; read-out: Solubility (μg/mL)): 5000 µg/mL

Compound: O=c1c(-c2ccc(O)cc2)coc2cc(O)cc(O)c12 [Genistein, 5,7-dihydroxy-3-(4-hydroxyphenyl)-4H-chromen-4-one]
- edema, necrosis and cell death induced by L-arginine ([8]; 10 mg/Kg/day and 100 mg/Kg/day): significantly reducing
- serum amylase, IL-6 and CRP levels ([8]; 10 mg/Kg/day and 100 mg/Kg/day): significantly reduced
- NF-κB and 4-HNE expression [8]: curbing
- reduction of fasting blood glucose [9]: ~30%
- logP (log P): 3.04
- affinity, agonist of G protein-coupled estrogen receptor [10]: 133 nM
- reduction of HbA1C [11]: ~37%
- reduction of fasting blood glucose [11]: ~57%
- monocrotaline-induced preexisting PH [12]: reversed
- progression of severe PH to right heart failure [12]: prevented
- right ventricular ejection fraction [12]: restoring
- right ventricular pressure [12]: reducing
- AUC(0-t) ([5]; solution, 25 mg/Kg nominal, fasted male SD rat, read-out: mean AUC0-last of dosed compound in plasma): ~500 ng·h/mL
- Cmax ([5]; solution, 25 mg/Kg nominal, fasted male SD rat, read-out: mean cmax of dosed compound in plasma): ~300 ng/mL
- half-life ([5]; solution, 25 mg/Kg nominal, fasted male SD rat, read-out: mean t1/2 of dosed compound in plasma (converted)): ~78 min
- Tmax ([5]; solution, 25 mg/Kg nominal, fasted male SD rat, read-out: mean tmax of dosed compound in plasma (converted)): 10 min
- adverse effects [13]: No treatment-specific severe adverse effects were reported
- acid-mediated fibril formation, of that exhibited by TTR alone [14]: < 10%
- binding to TTR in plasma over all of the other plasma proteins [14]: highly selective binding
- amyloidogenesis of TTR mutations V30M and V122I [15]: inhibits
- necrosis, edema and inflammatory infiltration compared to the experimental models [16]: mitigated
- tolerability [17]: well tolerated, with no to mild side effects
- solubility at 24 h ([7]; read-out: Solubility): 0.027 mM
- solubility at 24 h ([7]; read-out: Solubility (μg/mL)): 7.29 µg/mL
- adverse effects (healthy volunteers): No significant adverse effects were reported, other than instances of diarrhea, headache or nausea at the highest dosages
- markers of oxidative stress (mdx mice): reduced
- muscle necrosis (mdx mice): reduced
- muscle regeneration (mdx mice): enhanced
- serum creatine-kinase levels (mdx mice): reduced
- forelimb strength and strength normalized to weight (mdx mice; five-week old mdx mice, five weeks, daily or 3-times/week): increased
- AUC(0-t) ([18]; male, SD, rat, in vivo, po, 71 mg/kg, solid form, genistein 71 mg/Kg alone, considerable variability, read-out: mean AUC0-last of dosed compound in plasma): ~500 ng·h/mL
- AUC(0-t) ([18]; male, SD, rat, in vivo, po, 71 mg/kg, solid form, genistein 71 mg/Kg together with 14.2 mg/Kg inulin, read-out: mean AUC0-last with addition of inulin): ~300 ng·h/mL
- Cmax ([18]; male, SD, rat, in vivo, po, 71 mg/kg, read-out: mean cmax of dosed compound in plasma): ~160 ng/mL
- Tmax ([18]; male, SD, rat, in vivo, po, 71 mg/kg, read-out: mean tmax of dosed compound in plasma): ~3 h
- half-life ([18]; male, SD, rat, in vivo, po, read-out: mean t1/2 of dosed compound in plasma (converted)): ~120 min
- effect of inulin on the peak [18, 21]: slightly reducing
- time of peak with addition of inulin [18, 21]: around 5 hours
- bone mineral density at femoral neck and lumbar spine (postmenopausal women; after 36 months): greater increases
- mammographic breast density, endometrial thickness, expression of BRCA1 and BRCA2 (postmenopausal women; after 36 months): no significant changes
- sister chromatid exchange compared to placebo (postmenopausal women; after 36 months): reducing
- discomfort or adverse events between participants (postmenopausal women): No differences

Compound: O=c1c(-c2ccc(O)cc2)coc2cc(OP(=O)(O)O)cc(O)c12 [Genistein-7-O-phosphate, genistein 7-O-phosphate, reference compound]
- bioavailability [19]: more bioavailable than aglyconic genistein
- water solubility [19]: practically water soluble
- solubility at 24 h ([7]; read-out: Solubility): 3.57 mM
- solubility at 24 h ([7]; read-out: Solubility (μg/mL)): 1250 µg/mL

Compound: COc1ccc2[nH]c([S+]([O-])Cc3ncc(C)c(OC)c3C)nc2c1 (centres unmarked) [Omeprazole, omeprazole, reference compound]
- Percentage remaining at time: 1 hour [2]: 35.4%
- Percentage remaining at time: 2 hours [2]: 23.1%
- Percentage remaining at time: 6 hours [2]: 4.2%
- Percentage remaining at time: 24 hours [2]: 0%
- Percentage remaining at time: 0 [2]: 100%

Results, then the compound that gave them:

- formation of glucuronidation, sulfation, and glutathione conjugates [1]: noticeable absence
- Percentage remaining at time: 1 hour [2]: 94.4%
- Percentage remaining at time: 2 hours [2]: 91.5%
- Percentage remaining at time: 6 hours [2]: 83.8%
- Percentage remaining at time: 24 hours [2]: 42.1%
- Percentage remaining at time: 0 [2]: 100%
- normalized control factor remaining [3]: 24.9%
- half-life at 1 µM ([3]; intestinal S9 fraction, pH 7.4): 28.7 min
- microsomal CLint at 1 µM [3, 20]: 48.4 µL/min/mg
- normalized control factor remaining [4]: 30.4%
- half-life at 1 µM ([4]; intestinal S9 fraction, pH 7.4): 2.6 min
- microsomal CLint at 1 µM [4, 20]: 526 µL/min/mg
- Cmax ([5]; male, SD, rat, 25 mg/kg): ~15 ng/mL
- Tmax ([5]; male, SD, rat, 25 mg/kg): ~8 min
- decline of plasma concentration of dosed compound ([5]; rat, 25 mg/kg): very rapid decline in concentration
- half-life at 1 µM ([6]; pH 7.4): 29.7 min
- microsomal CLint at 1 µM ([6]; pH 7.4, read-out: intrinsic clearance rate): 46.7 µL/min/mg
- solubility at 24 h ([7]; read-out: Solubility): 12.5 mM
- solubility at 24 h ([7]; read-out: Solubility (μg/mL)): 4770 µg/mL
Compound: O=c1c(-c2ccc(OCOP(=O)(O)O)cc2)coc2cc(O)cc(O)c12 [Compound 1, (4-(5,7-Dihydroxy-4-oxo-4H-chromen-3-yl)phenoxy)methyl dihydrogen phosphate]

- Percentage remaining at time: 1 hour [2]: 104%
- Percentage remaining at time: 2 hours [2]: 110%
- Percentage remaining at time: 6 hours [2]: 114%
- Percentage remaining at time: 24 hours [2]: 106%
- Percentage remaining at time: 0 [2]: 100%
- solubility at 24 h ([7]; read-out: Solubility): 0.612 mM
- solubility at 24 h ([7]; read-out: Solubility (μg/mL)): 293 µg/mL
Compound: CC(C)(CCCOP(=O)(O)O)C(=O)Oc1ccc(-c2coc3cc(O)cc(O)c3c2=O)cc1 [Compound 4, 4-(5,7-Dihydroxy-4-oxo-4H-chromen-3-yl)phenyl 2,2-dimethyl-5-(phosphonooxy)pentanoate]
